Literature values, collected in patent US20240252431A1, “PULMONARY BIGUANIDE FORMULATIONS AND DELIVERY DEVICES” (Onconox Inc., priority 2021, published 2024).

Columns and labels:
[1] = test system: lung fibrosis elicited by bleomycin; conditions: mouse bleomycin model; treatment starting three weeks after lung injury, continuing five weeks
[2] = test system: radiation induced pneumonitis; conditions: in vivo

## CN(C)C(=N)N=C(N)N [Metformin, metformin]
[1]
  effect on established lung fibrosis: reverse established lung fibrosis
[2]
  effect on radiation induced pneumonitis: protect against radiation induced pneumonitis
